Reference: patent US20250197343A1, “CATIONIC LIPID” (TAKEDA PHARMACEUTICAL COMPANY LIMITED, priority 2021, published 2025)

Key:
[1] = Particle size of Luc DNA-encapsulated lipid nanoparticles; format: physicochemical; conditions: cationic lipid:DPPC:cholesterol:GM-020=60:10.6:28:1.4 molar ratio
Procedure, shortened: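 LNPs of cationic lipid:DPPC:cholesterol:GM-020 (60:10.6:28:1.4 molar) encapsulating luciferase DNA, made by microfluidic mixing with DNA in 10 mM MES pH 5.5, dialysed into PBS, stored in 20% sucrose/PBS at −80 °C. Size by dynamic light scattering, reported as cumulant Z-average.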

[2] = Rate of encapsulation of Luc DNA in lipid nanoparticles; format: physicochemical; design: unit: %; conditions: Luc DNA-encapsulated lipid nanoparticles; cationic lipid:DPPC:cholesterol:GM-020=60:10.6:28:1.4 molar ratio
Procedure, shortened: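 Luc DNA-LNPs (cationic lipid:DPPC:cholesterol:GM-020 = 60:10.6:28:1.4 molar) formed by microfluidic mixing with DNA in 10 mM MES pH 5.5, then dialyzed into PBS. RiboGreen fluorescence measured with and without Triton X-100; encapsulation rate is the encapsulated fraction of total nucleic acid.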

ICrl:CD1 (ICR) mice = test: Mouse bioluminescence imaging evaluation (Test Example 1); format: in vivo; conditions: Luc DNA-encapsulated lipid nanoparticles 10 mL/kg i.v. to ICR mice; IVIS total flux 15 minutes after luciferin i.p.
Procedure, shortened: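 ICR mice received Luc DNA-encapsulated lipid nanoparticles i.v. (10 mL/kg), then luciferin 15 mg/mL i.p. (10 mL/kg). Ventral IVIS imaging under isoflurane 15 min after luciferin; total flux scored A (≥3.0E+07), B (1.0E+07 to <3.0E+07), C (<1.0E+07).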

Huh-7 cells = test: Evaluation of viability using Huh-7 cells (Test Example 2); format: cell-based; conditions: Huh-7 cells, Luc DNA-encapsulated lipid nanoparticles, PBS group = 100%, dead cell group = 0%; for Viability 0.1 μg/ml (%): final concentration 0.1 μg/mL; for Viability 0.3 μg/ml (%): final concentration 0.3 μg/mL
Protocol: Huh-7 cells were seeded in a 96-well plate, and PBS, the Luc DNA-encapsulated lipid nanoparticles obtained in the aforesaid Production Example by using the cationic lipids of the Examples shown in Table 3, or Luc DNA-encapsulated lipid nanoparticles for control which were obtained in the same manner as in the aforesaid Production Example except that a known lipid, MC3 (DLin-MC3-DMA) or ALC-0315, was used instead of the cationic lipids of the Examples were added thereto (final concentration: 0.1 μg/mL and 0.3 μg/mL), followed by evaluation of viability (CellTiter-Fluor Cell Viability Assay, Promega Corporation). Taking the viability of dead cell group as 0% and the viability of the PBS group as 100%, the viability of each of the lipid particle groups was calculated. Higher viability indicates higher safety of the lipid particles. When the cationic lipids of the Examples were used, an improvement in safety compared to the control groups of MC3 and ALC-0315 was observed.

## CCCCCCCCCOC(=O)CCCCC(=O)OCC(COC(=O)CCCCC(=O)OCCCCCCCCC)(COC(=O)CCCCC(=O)OCCCCCCCCC)COC(=O)CCCN(C)C [Example 41, 1,1′-[2-({[4-(Dimethylamino)butanoyl]oxy}methyl)-2-({[6-(nonyloxy)-6-oxohexanoyl]oxy}methyl)propane-1,3-diyl] 6,6′-dinonyl dihexanedioate]
[1]
  Particle size (nm): 138.0 nm
[2]
  Rate of encapsulation: 80.3
ICrl:CD1 (ICR) mice
  Luminescence: B (B represents luminescence of 1.0E+0.7 or more and less than 3.0E+07)
Huh-7 cells
  Viability 0.1 μg/ml (%): 111%
  Viability 0.3 μg/ml (%): 101%

## CCCCCCCCCCOC(=O)CCCCC(=O)OCC(COC(=O)CCCCC(=O)OCCCCCCCCCC)(COC(=O)CCCN(C)C)COC(=O)CC(CCCCC)CCCCC [Example 45, 1,1′-Didecyl 6,6′-[2-({[4-(dimethylamino)butanoyl]oxy}methyl)-2-{[(3-pentyloctanoyl)oxy]methyl}propane-1,3-diyl] dihexanedioate]
[1]
  Particle size (nm): 119.0 nm
[2]
  Rate of encapsulation: 95.6
ICrl:CD1 (ICR) mice
  Luminescence: A (A represents luminescence of 3.0E+07 or more)
Huh-7 cells
  Viability 0.1 μg/ml (%): 108%
  Viability 0.3 μg/ml (%): 103%

## CCCCCCCCCCOC(=O)CCCCC(=O)OCC(COC(=O)CCCN(C)C)(COC(=O)CC(CCCCC)CCCCC)COC(=O)CC(CCCCC)CCCCC [Example 51, Decyl 2-({[4-(dimethylamino)butanoyl]oxy}methyl)-3-[(3-pentyloctanoyl)oxy]-2-{[(3-pentyloctanoyl)oxy]methyl}propyl hexanedioate]
[1]
  Particle size (nm): 83.9 nm
[2]
  Rate of encapsulation: 98.2
ICrl:CD1 (ICR) mice
  Luminescence: B (B represents luminescence of 1.0E+0.7 or more and less than 3.0E+07)
Huh-7 cells
  Viability 0.1 μg/ml (%): 104%
  Viability 0.3 μg/ml (%): 78%

## CCCCCCCOC(=O)CCCCC(=O)OCC(COC(=O)CCCCC(=O)OCCCCCCC)(COC(=O)CCCN(C)CCO)COC(=O)CC(CCCCC)CCCCC [Example 93, 1,1′-Diheptyl 6,6′-(2-[({4-[(2-hydroxyethyl)(methyl)amino]butanoyl}oxy)methyl]-2-{[(3-pentyloctanoyl)oxy]methyl}propane-1,3-diyl) dihexanedioate]
[1]
  Particle size (nm): 145.6 nm
[2]
  Rate of encapsulation: 94.8
ICrl:CD1 (ICR) mice
  Luminescence: B (B represents luminescence of 1.0E+0.7 or more and less than 3.0E+07)
Huh-7 cells
  Viability 0.1 μg/ml (%): 105%
  Viability 0.3 μg/ml (%): 101%

## CCCCCC(CCCCC)CC(=O)OCC(COC(=O)CCCCC(=O)OCC(CCC)CCC)(COC(=O)CCCCC(=O)OCC(CCC)CCC)COC(=O)CCCN(C)C [Example 115, 1,1′-[2-({[4-(Dimethylamino)butanoyl]oxy}methyl)-2-{[(3-pentyloctanoyl)oxy]methyl}propane-1,3-diyl] 6,6′-bis(2-propylpentyl) dihexanedioate]
[1]
  Particle size (nm): 109.6 nm
[2]
  Rate of encapsulation: 95.7
ICrl:CD1 (ICR) mice
  Luminescence: A (A represents luminescence of 3.0E+07 or more)
Huh-7 cells
  Viability 0.1 μg/ml (%): 110%
  Viability 0.3 μg/ml (%): 100%

## CCCCCCCCC(C(=O)OC)C(=O)OCC(COC(=O)CCCN(C)C)(COC(=O)CC(CCCCC)CCCCC)COC(=O)C(CCCCCCCC)C(=O)OC (stereo not drawn) [Example 132, 1,1′-[2-({[4-(Dimethylamino)butanoyl]oxy}methyl)-2-{[(3-pentyloctanoyl)oxy]methyl}propane-1,3-diyl] 3,3′-dimethyl bis(octylpropanedioate)]
[1]
  Particle size (nm): 129.2 nm
[2]
  Rate of encapsulation: 96.5
ICrl:CD1 (ICR) mice
  Luminescence: A (A represents luminescence of 3.0E+07 or more)
Huh-7 cells
  Viability 0.1 μg/ml (%): 95%
  Viability 0.3 μg/ml (%): 94%
